These results are taken from PubChem BioAssay (NCI).

Test systems include HT29 colon; HL-60(TB) leukemia; SNB-75 CNS; CAKI-1 renal; HOP-62 NSCLC; SF-268 CNS; KM12 colon; NCI-H522 lung; RPMI-8226 leukemia; COLO 205 colon.
Holding throughout (test): NCI anticancer screen, dose series, 48 h

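Test compounds were applied to cells in 96-well plates for 48 hours at 5 doses. At the GI50, growth is halved. TGI denotes the concentration required for complete inhibition of growth.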 Where only a bound is given, the exact number is not on record here.

For `C[N+](C)(C)CCOC(=O)/C=C/c1cnc[nH]1`, the TGI in the test on HT29 colon, in the test on HL-60(TB) leukemia, in the test with SNB-75 CNS, with CAKI-1 renal, in the test on HOP-62 NSCLC and in the test with SF-268 CNS was above 500 µM in each case. In addition, the TGI in the test with KM12 colon, in the test on NCI-H522 lung, in the test on RPMI-8226 leukemia and with COLO 205 colon was above 500 µM each time.
In the case of `Nc1ncnc2c1sc(=S)n2-c1ccccc1`, the TGI in the test on HT29 colon, in the test with HL-60(TB) leukemia, in the test on SNB-75 CNS, with CAKI-1 renal, in the test on HOP-62 NSCLC and in the test on SF-268 CNS was above 100 µM in each case. In addition, the TGI in the test on KM12 colon, in the test with NCI-H522 lung, with RPMI-8226 leukemia and with COLO 205 colon was above 100 µM each time.
`COc1cccc2c1C(=O)c1c(O)c3c(c(O)c1C2=O)C[C@@](O)(C(=O)CN1CCOCC1)C[C@@H]3OC1CC(N)C(O)C(C)O1` (stereo partly specified): the GI50 was 3.87 µM in the test with HT29 colon and 2.61 µM in the test on CAKI-1 renal. In addition, the TGI in the test with HL-60(TB) leukemia is 5.19 µM; in the test on SNB-75 CNS, 22.4 µM; in the test on CAKI-1 renal it was above 53.8 µM; in the test on HOP-62 NSCLC, 14.2 µM; in the test with SF-268 CNS, 51.3 µM; with KM12 colon it was 51.5 µM. Also, the TGI in the test with NCI-H522 lung worked out at 15.4 µM; in the test with RPMI-8226 leukemia, 43.2 µM; in the test on COLO 205 colon it was 24.1 µM.
As to `O=C(N/N=C\c1cccs1)c1ccncc1`, the TGI in the test with HT29 colon, in the test with HL-60(TB) leukemia, in the test on SNB-75 CNS, in the test on CAKI-1 renal, in the test on HOP-62 NSCLC and in the test on SF-268 CNS was above 100 µM in each case. Besides, the TGI in the test on KM12 colon, in the test with NCI-H522 lung, in the test on RPMI-8226 leukemia and in the test on COLO 205 colon was above 100 µM each time.
Regarding `C/C(=N/NC(=S)N(C)C)c1ccccc1O`, the TGI was above 100 µM with HT29 colon; above 51.9 µM in the test on HL-60(TB) leukemia; 82.9 µM in the test with SNB-75 CNS; above 100 µM in the test with CAKI-1 renal; above 100 µM with HOP-62 NSCLC; above 38.2 µM in the test with SF-268 CNS. Moreover, the TGI was above 100 µM with KM12 colon, above 100 µM in the test with NCI-H522 lung, above 100 µM with RPMI-8226 leukemia and above 58.6 µM in the test on COLO 205 colon.
Turning to `COc1cc(N)c2[nH]c3c(C)ccc(C)c3c2c1`, the TGI in the test on HT29 colon, in the test with HL-60(TB) leukemia, in the test with SNB-75 CNS, with CAKI-1 renal, in the test with HOP-62 NSCLC and with SF-268 CNS was above 100 µM each time. Also, the TGI in the test with KM12 colon, in the test on NCI-H522 lung, with RPMI-8226 leukemia and in the test on COLO 205 colon was above 100 µM each time.
On to `CCCCC(=C=C(C)CO)C1CCCN1C(=O)OC(C)(C)C` (stereo unspecified), for which the TGI in the test with HT29 colon is 34.3 µM; in the test with HL-60(TB) leukemia it was 32.5 µM; in the test on SNB-75 CNS it was 53.4 µM; in the test with CAKI-1 renal it was 61.5 µM; in the test with HOP-62 NSCLC, 39.1 µM; with SF-268 CNS it was 33.5 µM. The TGI was 34.8 µM in the test with KM12 colon, 29 µM with NCI-H522 lung, 36.8 µM with RPMI-8226 leukemia and 32.9 µM with COLO 205 colon.
`COc1ccc(C2S/C(=C\c3cccc(OC)c3)C(=O)N2NC(=O)Cc2ccccc2)cc1` (stereo unspecified): the TGI with HT29 colon, in the test with HL-60(TB) leukemia, with SNB-75 CNS, in the test with CAKI-1 renal, in the test with HOP-62 NSCLC and with SF-268 CNS was above 100 µM each time. Also, the TGI in the test with KM12 colon, in the test with NCI-H522 lung, with RPMI-8226 leukemia and in the test with COLO 205 colon was above 100 µM throughout.
For `CC(C)(C)c1cc(C(=O)C2Cc3ccccc3C(=O)O2)cc(C(C)(C)C)c1O` (stereo unspecified), the TGI with HT29 colon was 35.5 µM; in the test with HL-60(TB) leukemia it was 35 µM; with SNB-75 CNS, 33.8 µM; in the test with CAKI-1 renal it was 52.5 µM; with HOP-62 NSCLC, 30.8 µM; in the test with SF-268 CNS it was 40.6 µM. In addition, the TGI in the test with KM12 colon is 32.1 µM; in the test with NCI-H522 lung it was 27.8 µM; in the test with RPMI-8226 leukemia, 42.1 µM; in the test with COLO 205 colon it was 33.1 µM.
Regarding `COC(=O)CCCC1(CCCC(=O)OC)CCCCCCCCC(CCCC(=O)OC)(CCCC(=O)OC)C(=O)C1=O`, the TGI with HT29 colon was above 100 µM; in the test with HL-60(TB) leukemia, 12.2 µM; in the test on SNB-75 CNS, 88.7 µM; in the test with CAKI-1 renal, 24.4 µM; in the test with HOP-62 NSCLC it was above 100 µM; with SF-268 CNS, 55.3 µM. Besides, the TGI in the test with KM12 colon was above 100 µM; in the test with NCI-H522 lung it was 5.38 µM; in the test with RPMI-8226 leukemia, above 100 µM; in the test with COLO 205 colon, above 100 µM.
As to `CCCCCCCCCC(O)CC(=O)c1c(O)cccc1O` (stereo unspecified), the TGI is 43 µM in the test on HT29 colon; 57.3 µM with HL-60(TB) leukemia; 34.9 µM in the test on SNB-75 CNS; 44 µM with CAKI-1 renal; 33.1 µM in the test with HOP-62 NSCLC; 35.9 µM with SF-268 CNS. The TGI was 40.8 µM in the test on KM12 colon, 37.9 µM in the test on NCI-H522 lung, 45.2 µM in the test with RPMI-8226 leukemia and 91.7 µM in the test with COLO 205 colon.
In the case of `COC1=CC(=O)c2c(cc(COP(N)(=O)N(CCCl)CCCl)n2C)C1=O` (stereo unspecified), the TGI was 4.33 µM in the test on HT29 colon; 3.89 µM with HL-60(TB) leukemia; 4.45 µM in the test on SNB-75 CNS; below 0.0478 µM with CAKI-1 renal; 7.88 µM with HOP-62 NSCLC; 2.34 µM with SF-268 CNS. Besides, the TGI worked out at 5.02 µM in the test with KM12 colon, 0.802 µM with NCI-H522 lung, 4.73 µM with RPMI-8226 leukemia and 3.08 µM with COLO 205 colon.
With `Cc1ccc(S(=O)(=O)/N=C2/N(C)CCCS2(=O)=O)cc1`, the TGI in the test on HT29 colon, in the test on HL-60(TB) leukemia, in the test with SNB-75 CNS, in the test with CAKI-1 renal, in the test on HOP-62 NSCLC and in the test with SF-268 CNS was above 100 µM in each case. In addition, the TGI in the test on KM12 colon, with NCI-H522 lung, with RPMI-8226 leukemia and in the test on COLO 205 colon was above 100 µM each time.
